SMILES strings stand for the structures.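 Step 1: Grow cells in 96-well plates. Step 2: Expose to compound for 48 hours at 5 concentrations. Step 3: Interpolate endpoints linearly; if unreached, use highest concentration. GI50 marks 50% less growth.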 Calls of active or inactive are those of the source. Cut-off read from the data, not from the text of the source: active = GI50 up to about 1.1 µM and inactive = higher.

Some test systems named below: DMS-273; KM-20L2; M19-MEL; RXF 631; SNB-78; XF498; DLD-1; HOP-18.
Common to all, as to assay: growth of human tumour cells (NCI), 48 h

With `CCCn1c(SCC)c2ccccc2c1-c1nc(F)nc(F)n1`, the GI50 in the assay with DMS-273, with KM-20L2, in the assay on M19-MEL, with RXF 631, in the assay with SNB-78 and with XF498 was > 100 µM (inactive) in each case.
Turning to `CC(C)c1cccc(=O)c(O)c1`, the GI50 in the assay with DLD-1 was 1.73 µM (inactive); with DMS-273, 4 µM (inactive); in the assay on HOP-18, 1.4 µM (inactive); in the assay on KM-20L2 it was 2.85 µM (inactive); in the assay with M19-MEL, 2.15 µM (inactive); in the assay on RXF 631 it was 1.25 µM (inactive). Besides, the GI50 in the assay on SNB-78 was 2.1 µM (inactive).
With `Cn1cccc1/C=C/c1cc(Br)c(/C=C/c2cccn2C)cc1Br`, the GI50 in the assay on DLD-1 was 0.643 µM (active); with DMS-273 it was 18.5 µM (inactive); in the assay on HOP-18, 5 µM (inactive); with KM-20L2 it was 16.3 µM (inactive); in the assay with M19-MEL, 18.4 µM (inactive); in the assay with RXF 631, 13.9 µM (inactive).
Consider `NNC(=O)/C(=C/c1cccc([N+](=O)[O-])c1)NC(=O)c1ccccc1`, for which the GI50 in the assay with DLD-1, in the assay on DMS-273, in the assay on HOP-18, in the assay on M19-MEL, in the assay on RXF 631 and in the assay with SNB-78 was > 100 µM (inactive) in each case. Moreover, the GI50 in the assay with XF498 is > 100 µM (inactive).
In the case of `COC1C=CC(C(=O)[N+]2=Cc3[nH]c4ccccc4c3CC2)O1` (stereo unspecified), the GI50 was > 100 µM (inactive) in the assay on DLD-1; 82.2 µM (inactive) in the assay on DMS-273; > 100 µM (inactive) in the assay with HOP-18; > 100 µM (inactive) with KM-20L2; > 100 µM (inactive) in the assay with M19-MEL; > 100 µM (inactive) in the assay with RXF 631. In the assay with SNB-78, the GI50 is > 100 µM (inactive).
For the compound `CCc1ccccc1NC(=O)C(=O)C(C#N)c1c(Cl)cccc1Cl` (stereo unspecified), the GI50 in the assay with DLD-1, in the assay with DMS-273, in the assay on KM-20L2, in the assay with M19-MEL, in the assay on RXF 631 and with SNB-78 was > 100 µM (inactive) in each case. Moreover, the GI50 in the assay with XF498 is > 100 µM (inactive).
Turning to `COc1ccc2c(c1OC)C(C=C(c1ccccc1)c1ccccc1)CN(C)C2` (stereo unspecified), the GI50 was 23.4 µM (inactive) in the assay with DLD-1; 17.5 µM (inactive) in the assay with DMS-273; 17.6 µM (inactive) with HOP-18; 10.3 µM (inactive) in the assay with KM-20L2; 30.5 µM (inactive) in the assay on M19-MEL; 17.4 µM (inactive) with RXF 631. Moreover, the GI50 with SNB-78 was 34.6 µM (inactive).
For the compound `O=C1CC(c2c(-c3ccccc3)[nH]c3ccccc23)C(=O)N1c1ccccc1` (stereo unspecified), the GI50 with DLD-1 is 70.5 µM (inactive); with DMS-273 it was > 100 µM (inactive); in the assay on KM-20L2, 95.1 µM (inactive); with M19-MEL, > 100 µM (inactive); in the assay with RXF 631, 56.8 µM (inactive); with SNB-78, > 100 µM (inactive). In addition, the GI50 with XF498 is > 100 µM (inactive).
As to `Cc1[nH]c2ccccc2c1C1Cc2ccccc2N1C(=O)/C=C\C(=O)O` (stereo unspecified), the GI50 is 64.9 µM (inactive) in the assay on DLD-1; 58.2 µM (inactive) with DMS-273; 81.1 µM (inactive) in the assay with KM-20L2; 34 µM (inactive) in the assay on M19-MEL; > 100 µM (inactive) in the assay with RXF 631; 61.8 µM (inactive) in the assay on SNB-78. For the same compound, the GI50 in the assay on XF498 was 22.4 µM (inactive).
With `Cc1ccc(SSCCCCS(=O)O)cc1`, the GI50 was 25.4 µM (inactive) in the assay with DLD-1; 19.6 µM (inactive) in the assay with DMS-273; 41.9 µM (inactive) in the assay with HOP-18; 20.4 µM (inactive) in the assay on KM-20L2; 12.2 µM (inactive) in the assay with M19-MEL; 11.7 µM (inactive) with RXF 631. For the same compound, the GI50 in the assay with SNB-78 is 25.1 µM (inactive); in the assay on XF498, 14.8 µM (inactive).
Take `COc1ccc(S(=O)(=O)Nc2ccccc2C(=O)O)cc1`: the GI50 in the assay on DLD-1, with DMS-273, with HOP-18, in the assay on KM-20L2, in the assay on M19-MEL and with RXF 631 was > 100 µM (inactive) throughout. In addition, in the assay with XF498, the GI50 is > 100 µM (inactive).

These data come from ChEMBL document CHEMBL1201862, “PubChem BioAssay data set” (2004).
